Reference: patent US8110570B2, “Modulators of acetyl-coenzyme A carboxylase and methods of use thereof” (Cropsolution, Inc., priority 2008, dated 2012)

What was measured:
hACC2 = target: T1, hACC2 (Homo sapiens, UniProt O00763); experiment: [14C]bicarbonate incorporation assay, overall ACC activity; type: biochemical; conditions: recombinant hACC2, overall ACC activity
T1 construct: delete amino acids 1-148 and add Met-Gly in front of Lys149 in the final product; His tag (C); made in house; host or cells: baculovirus, Sf9 insect cells
T1 sequence (O00763 149-2458 limits assumed): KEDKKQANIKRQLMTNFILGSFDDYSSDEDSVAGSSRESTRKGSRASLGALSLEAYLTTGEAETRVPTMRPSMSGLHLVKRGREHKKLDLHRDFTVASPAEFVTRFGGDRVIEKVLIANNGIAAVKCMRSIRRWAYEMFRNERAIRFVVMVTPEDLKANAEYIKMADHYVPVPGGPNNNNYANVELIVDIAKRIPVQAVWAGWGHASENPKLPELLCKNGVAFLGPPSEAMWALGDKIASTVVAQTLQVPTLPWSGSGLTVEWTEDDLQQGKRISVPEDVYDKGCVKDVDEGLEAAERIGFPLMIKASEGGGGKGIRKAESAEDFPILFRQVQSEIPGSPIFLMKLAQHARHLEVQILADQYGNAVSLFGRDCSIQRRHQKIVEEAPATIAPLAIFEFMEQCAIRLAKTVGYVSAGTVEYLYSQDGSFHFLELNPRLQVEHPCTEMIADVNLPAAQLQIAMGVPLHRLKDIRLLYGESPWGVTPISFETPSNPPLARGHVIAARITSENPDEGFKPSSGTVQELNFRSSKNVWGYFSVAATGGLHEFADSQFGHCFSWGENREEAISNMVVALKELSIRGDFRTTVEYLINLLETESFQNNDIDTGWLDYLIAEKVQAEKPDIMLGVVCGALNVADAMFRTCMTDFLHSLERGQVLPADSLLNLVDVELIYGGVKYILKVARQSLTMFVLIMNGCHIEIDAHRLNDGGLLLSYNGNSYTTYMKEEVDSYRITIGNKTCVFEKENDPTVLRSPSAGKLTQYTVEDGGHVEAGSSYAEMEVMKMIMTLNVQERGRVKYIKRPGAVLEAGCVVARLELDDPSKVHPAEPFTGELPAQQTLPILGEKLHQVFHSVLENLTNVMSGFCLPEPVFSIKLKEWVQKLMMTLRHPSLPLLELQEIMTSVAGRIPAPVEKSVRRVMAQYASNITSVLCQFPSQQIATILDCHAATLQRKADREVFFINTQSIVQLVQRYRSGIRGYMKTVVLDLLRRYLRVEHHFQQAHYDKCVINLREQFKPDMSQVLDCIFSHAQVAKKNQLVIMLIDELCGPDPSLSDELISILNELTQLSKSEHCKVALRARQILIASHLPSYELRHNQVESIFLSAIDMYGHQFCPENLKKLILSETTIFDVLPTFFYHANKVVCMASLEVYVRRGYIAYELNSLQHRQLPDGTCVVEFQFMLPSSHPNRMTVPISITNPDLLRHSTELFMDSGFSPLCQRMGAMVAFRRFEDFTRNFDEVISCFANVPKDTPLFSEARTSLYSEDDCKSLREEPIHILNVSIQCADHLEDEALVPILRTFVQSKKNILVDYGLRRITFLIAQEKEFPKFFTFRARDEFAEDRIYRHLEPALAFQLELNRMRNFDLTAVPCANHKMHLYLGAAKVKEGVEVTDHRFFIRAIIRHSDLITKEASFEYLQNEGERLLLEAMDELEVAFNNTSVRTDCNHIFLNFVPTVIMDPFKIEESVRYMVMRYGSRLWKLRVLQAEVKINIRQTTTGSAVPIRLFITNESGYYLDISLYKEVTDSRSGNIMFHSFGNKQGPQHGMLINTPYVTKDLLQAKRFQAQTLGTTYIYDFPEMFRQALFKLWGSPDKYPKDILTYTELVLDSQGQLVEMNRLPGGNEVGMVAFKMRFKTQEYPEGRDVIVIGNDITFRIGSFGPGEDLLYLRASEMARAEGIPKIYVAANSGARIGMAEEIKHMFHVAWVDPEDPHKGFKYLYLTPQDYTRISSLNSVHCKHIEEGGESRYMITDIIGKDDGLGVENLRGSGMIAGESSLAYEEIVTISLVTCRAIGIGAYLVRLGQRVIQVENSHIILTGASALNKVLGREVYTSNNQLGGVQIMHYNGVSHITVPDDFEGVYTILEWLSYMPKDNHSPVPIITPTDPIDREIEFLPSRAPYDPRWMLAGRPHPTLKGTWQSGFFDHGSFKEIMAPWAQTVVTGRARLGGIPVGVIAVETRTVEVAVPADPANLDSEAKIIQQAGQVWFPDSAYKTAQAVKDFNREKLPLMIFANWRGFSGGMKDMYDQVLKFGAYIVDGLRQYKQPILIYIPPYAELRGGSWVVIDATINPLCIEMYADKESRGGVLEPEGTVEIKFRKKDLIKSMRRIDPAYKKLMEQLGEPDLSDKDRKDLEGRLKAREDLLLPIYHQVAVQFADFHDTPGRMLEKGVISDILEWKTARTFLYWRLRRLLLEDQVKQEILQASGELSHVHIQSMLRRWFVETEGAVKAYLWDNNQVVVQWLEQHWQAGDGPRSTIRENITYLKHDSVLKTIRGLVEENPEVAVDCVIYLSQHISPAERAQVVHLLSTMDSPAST
Method in brief: (§1)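 His-tagged full-length hACC1 or hACC2 (residues 1-148 deleted, Met-Gly added), expressed in sf9 cells with biotin and purified, were assayed by [14C]bicarbonate incorporation into acetyl-CoA. Reactions at pH 7.4 with 2 mM acetyl-CoA, 12 mM NaHCO3 and 1% DMSO were started with 2 mM ATP and run 10 min at 37° C. Acid-stable label was counted and IC50 obtained from dose-response fits.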

hACC1 = target: T2, hACC1 (Homo sapiens, UniProt Q13085); experiment: as above; type: biochemical; conditions: recombinant hACC1, overall ACC activity
T2 construct: PCR primers were designed for full-length hACC1 and hACC2 using GenBank submissions AY237919 and AJ575592, respectively; His tag (C); made in house; host or cells: baculovirus, Sf9 insect cells
Method in brief: as §1

[1] = tested on: HCT-116 human colon cancer cells; experiment: MTT Cell Proliferation Assay; type: cell-based; conditions: 72 hours, read-out: Percent of Control HCT-116
Method in brief: (§2)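 Cells seeded and grown 24 h at 37 °C, 5% CO2, then exposed to compound for 72 h. Viability read by MTT reduction (4 h) after overnight lysis/solubilization. Results expressed as percent of control versus compound concentration.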

[2] = tested on: MDA-MB-231 human breast cancer cells; experiment: MTT Cell Proliferation Assay; type: cell-based; conditions: 72 hours, read-out: Percent of Control MDA-MB-231
Method in brief: as §2

[3] = tested on: PC-3 human prostate cancer cells; experiment: MTT Cell Proliferation Assay; type: cell-based; conditions: 72 hours, read-out: Percent of Control PC-3
Method in brief: as §2

[4] = tested on: A2780 human ovary cancer cells; experiment: MTT Cell Proliferation Assay; type: cell-based; conditions: 72 hours, read-out: Percent of Control A2780
Method in brief: as §2

Row | IC50 (hACC2) | IC50 (hACC1) | Compound | activity at 3.3 µM [1] | activity at 10 µM [1] | activity at 3.3 µM [2] | activity at 10 µM [2] | activity at 3.3 µM [3] | activity at 10 µM [3] | activity at 3.3 µM [4] | activity at 10 µM [4]
1 | 7.4 nM | 7.5 nM | COc1cc(C(=O)N2CCC3(CC2)NC(=O)c2cc(OC(C)C)ccc2O3)nc2c(OC)cccc12 [Compound 169] | 57.2% | 45% | 81.4% | 47.8% | 54.7% | 52.1% | 80.5% | 56.5%
2 | 23 nM | 26 nM | COc1ccc2c(c1)C(=O)NC1(CCN(C(=O)c3cc(OC)c4cccc(OC)c4n3)CC1)O2 [Compound 150] | 70.2% | 59.4% | 76.1% | 50.2% | 60.7% | 47.7% | 86.5% | 57.6%

Row | Compound | IC50 (hACC2) | IC50 (hACC1) | activity at 3.3 µM [1] | activity at 10 µM [1] | activity at 3.3 µM [2] | activity at 10 µM [2] | activity at 3.3 µM [3] | activity at 10 µM [3] | activity at 3.3 µM [4] | activity at 10 µM [4]
3 | COc1cc(C(=O)N2CCC3(CC2)NC(=O)c2cc(Br)ccc2O3)nc2c(OC)cccc12 [Compound 2, 6-Bromo-1′-[(4,8-dimethoxyquinoline-2-yl)carbonyl]spiro[2H-1,3-benzoxazine-2,4′-piperidine]-4(3H)-one] | 51 nM | 88 nM | – | – | – | – | – | – | – | –
